Values joined by “and” are separate entries in the source; they are usually repeats but may differ in a detail not shown here. Identical values can stand only once.
Assays:
[1] = Renal toxicity in mice, separate experiment Example 17 vs PMB; type: in vivo, mouse; settings: sc 25 mg free base/kg, four doses at 8 hr intervals
Procedure: (§1) After the fourth dose animals were transferred into individual metabolic cages and urine collected for 24 hours for determination of urinary biomarkers. After collecting urine mice were euthanised and the kidneys harvested for histopathology.
In a separate experiment Example 17 was compared with PMB.

HK-2 cells = assay: In vitro renal cell toxicity assay (HK-2); type: cell-based
How it was run: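 HK-2 cells seeded 7,500/well, adhered overnight, then exposed to compound for 24 h at 37° C, 5% CO2, with 5% water and 0.5% DMSO. Background-subtracted, vehicle-normalised dose-response fitted with bottom fixed at zero; IC50 reported relative to PMB in the same run, median where repeated.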

[2] = Kidney drug level after subcutaneous dose in mouse; type: in vivo; settings: mouse, in vivo, sc, 17.2 mg/kg
How it was run: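 Mice were euthanised four hours after subcutaneous dosing. Both kidneys were trimmed, weighed, snap-frozen, then homogenised with zirconium oxide beads. After centrifugation (13,000 rpm, 6 °C, 10 min), supernatants were analysed by LC-MS-MS.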

[3] = Renal toxicity of Example 24 vs PMB after four doses in mouse; type: in vivo, mouse; settings: for Urine β-2 microglobulin: CD-1 mice, urine 24 h, normalized to urinary creatinine, mean
Procedure: Immediately after the fourth dose mice were transferred to metabolic cages and urine collected for 24 h. for determination of urinary biomarkers. After urine collection mice were sacrificed for renal histopathology.
The urine biomarkers were normalized to urinary creatinine.

[4] = tested on: E. coli, K. pneumoniae, P. aeruginosa, A. baumannii strains; assay: Synergy with rifampicin across the MIC panel; type: cell-based; settings: also against strains with reduced susceptibility to polymyxins
Procedure: (§2) MIC values (μg/mL) were determined by broth microdilution under CLSI conditions.

A. baumannii NCTC13301 = assay: Neutropenic murine thigh model; type: in vivo; settings: CD-1 mice thigh, IV 0.5 mg/kg at 2, 6, 10 h, counts at 16 h, PMB in parentheses, listed as PMB
Procedure: After rendering neutropenic (cyclophosphamide 150 mg/kg d-4, 100 mg/kg d-1), CD-1 mice (n=5) were inoculated in each thigh with approx. 10^5 cfu of A. baumannii NCTC13301. […] At 16 h post-infection mice were euthanised and thighs prepared for colony counts.
(§3) In each case the decrease observed with PMB in the same experiment is shown in parentheses: […]

P. aeruginosa ATCC 27853 [5] = assay: Neutropenic murine lung model; type: in vivo; settings: CD-1 mice lung, counts at 16 h, PMB in parentheses
Procedure: After rendering neutropenic (cyclophosphamide 200 mg/kg d-4, 150 mg/kg d-1). CD-1 mice (n=8) were inoculated intranasally with 10^4-10^5 cfu per lung of P. aeruginosa ATCC27853. Mice were dosed SC with appropriate doses of PMB sulphate or test compound (equivalent weight free base) at 2, 6 and 10 h post-infection. At 16 h post-infection mice were euthanised and lungs prepared for colony counts.
as §3

[6] = Renal toxicity in mice, 25 mg/kg sc four doses at 8 hr intervals, biomarkers and histopathology; type: in vivo, mouse; settings: mice (n=6), sc 25 mg free base/kg
Procedure: as §1

[7] = Renal toxicity in Cynomolgus monkey, iv infusion 7 days; type: in vivo
Procedure: In a separate experiment male monkeys (n=3) were dosed with PMB for the same period at 4 mg/kg/dose. In both experiments control animals were dosed 3 times per day with saline.
At the end of the 7 day period blood was sampled and the serum levels of blood urea nitrogen and creatinine determined as indicators of renal damage.
Kidneys were harvested at the end of the 7 day dosing period and examined microscopically.

A. baumannii IHMA 517303 = type: cell-based; settings: alone
Procedure: as §2

P. aeruginosa ATCC 27853 [8] = type: cell-based; settings: alone
Procedure: as §2

E. coli IHMA 940398 = type: cell-based; settings: alone
Procedure: as §2

[9] = tested on: A. baumannii IHMA 851735 (OXA-23); type: cell-based; settings: OXA-23; alone
Procedure: as §2

E. coli CDF-1 (MCR-1) = type: cell-based; settings: MCR-1; alone
Procedure: as §2

[10] = tested on: P. aeruginosa IHMA 644636; type: cell-based; settings: alone
Procedure: as §2

[11] = tested on: P. aeruginosa IHMA 517175; type: cell-based; settings: alone
Procedure: as §2

[12] = tested on: K. pneumoniae IHMA 580884; type: cell-based; settings: alone
Procedure: as §2

[13] = tested on: K. pneumoniae IHMA 520329 (SHV-12, KPC-2); type: cell-based; settings: SHV-12, KPC-2; alone
Procedure: as §2

[14] = tested on: A. baumannii NCTC 13301 (OXA-23); type: cell-based; settings: OXA-23; alone
Procedure: as §2

K. pneumoniae ATCC 13882 = assay: MIC alone and with rifampicin, broth microdilution CLSI; type: cell-based; settings: alone
Procedure: as §2

E. coli ATCC 25922 = assay: as above; type: cell-based; settings: alone
Procedure: as §2

[15] = cynomolgus monkey, in vivo, 4 mg/kg

For Polymyxin B [reference compound], the “Basophilic tubules (histopathology)” value ([1]; animals per grade) was 4 minimal/1 mild, the “Tubular degeneration/necrosis (histopathology)” value ([1]; animals per grade) was 4 normal/1 minimal and the “Albumin, elevation compared with vehicle control” value ([1]; urine) was 29×. The “Cystatin C, elevation compared with vehicle control” value ([1]; urine) was 2×, the “KIM-1, elevation compared with vehicle control” value ([1]; urine) was 771× and the “Cytotoxicity (measured IC50 relative to that recorded for Polymyxin B)” value (HK-2 cells) was 1.0. The Drug Level in Kidney 4 h [2] was 128 µg/g kidney, the Drug Level in Kidney 16 h [2] was 18 µg/g kidney and the “Tubular Degeneration/necrosis (histopathology, animals affected)” value ([3]; CD-1 mice (n=5), sc 25 mg/kg four times at 8 h intervals) was 5/5 (2 min/. The “Urine β-2 microglobulin” value ([3]; sc 25 mg/kg four times at 8 h intervals) was 43.83, the “Urine β-2 microglobulin” value ([3]; sc […] four times at 8 h intervals) was 3.43 and the “Basophilic Tubules (cortex) (animals affected)” value ([3]; mouse, in vivo, sc, 25 mg/kg) was 5/5 (1 min/. For the same substance, the “Mitotic Figures increased (animals affected)” value ([3]; mouse, in vivo, sc, 25 mg/kg) was 3/5, the “Urine Albumin” value ([3]; mouse, in vivo, sc, 25 mg/kg) was 7.73 and the “Urine Cystatin C” value ([3]; mouse, in vivo, sc, 25 mg/kg) was 44.51. For the same substance, the “Urine Kim-1” value ([3]; mouse, in vivo, sc, 25 mg/kg) was 3,446.42, the “Urine NGAL” value ([3]; mouse, in vivo, sc, 25 mg/kg) was 4.37 and the “Synergy with rifampicin (in words)” value [4] was “strong synergy with rifampicin”. For the same substance, the “Log drop in cfu Compared to Vehicle Control” value (A. baumannii NCTC13301) was 4.2 and 4.1, the “Log drop in cfu Compared to Vehicle Control” value (P. aeruginosa ATCC 27853 [5]; SC 5 mg/kg at 2, 6, 10 h) was 0 (0) and the “Log drop in cfu Compared to Vehicle Control” value (P. aeruginosa ATCC 27853 [5]; SC 7.5 mg/kg at 2, 6, 10 h) was 1.0. For the same substance, the “Log drop in cfu Compared to Vehicle Control” value (P. aeruginosa ATCC 27853 [5]; SC 10 mg/kg at 2, 6, 10 h) was 0.7, the “Kidney histopathology: signs of degeneration or regeneration” value [6] was “all 6 animals treated with PMB showed minimal tubular regeneration” and the “Kidney microscopy: tubular degeneration” value ([7]; Cynomolgus monkey (n=3), 4 mg/kg/dose, 3 times per day, 7 days) was 2 showed mild tubular degeneration and 1 minimal. For the same substance, the “AUC0-8 hr, one dosing cycle on day 7” value [7, 15] was 117 µg·h/mL, the “BUN elevation compared to control animals” value [7, 15] was 76% and the “MIC A. baumannii IHMA 517303” value (A. baumannii IHMA 517303) was >64 µg/mL. The “MIC P. aeruginosa ATCC 27853” value (P. aeruginosa ATCC 27853 [8]) was 0.5 µg/mL, the “MIC E. coli IHMA 940398” value (E. coli IHMA 940398) was 16 µg/mL and the “MIC A. baumannii IHMA 851735” value [9] was 8 µg/mL. The “MIC E. coli CDF-1” value (E. coli CDF-1 (MCR-1)) was 4 µg/mL, the “MIC P. aeruginosa IHMA 644636” value [10] was 32 µg/mL and the “MIC P. aeruginosa IHMA 517175” value [11] was 8 µg/mL. For the same substance, the “MIC K. pneumoniae IHMA 580884” value [12] was 8 µg/mL, the “MIC K. pneumoniae IHMA 520329” value [13] was 64 µg/mL and the “MIC A. baumannii NCTC 13301” value [14] was 0.25 µg/mL. For the same substance, the “MIC K. pneumoniae ATCC 13882” value (K. pneumoniae ATCC 13882) was 0.25 µg/mL and the “MIC E. coli ATCC 25922” value (E. coli ATCC 25922) was 0.25 µg/mL.

— US12528837B2, “Aryl substituted polymyxin derivatives” (priority 2018, dated 2026)
